Tests used:
[1] = test system: Epac1-induced H-Ras activation in rat neonatal cardiac myocytes; assay: Epac1-induced H-Ras activation, H-Ras-GTP pull-down in rat neonatal cardiac myocytes; format: cell-based; details: rat neonatal cardiac myocytes transfected with Epac1; CE3F4 30 min; Sp-007 10 μM, 10 min; FIG. 3B
Experimental: The effects of CE3F4 to prevent Epac1-induced H-Ras activation was determined by extraction of GTP-loaded H-Ras from cell lysates with the immobilized Ras-binding domain of Raf1.
HEK293 cells (FIG. 3A) or rat neonatal cardiac myocytes (FIG. 3B) were transfected with Epac1. 24 h after transfection, cells were preincubated or not with CE3F4 for 30 min and were then treated or not with Sp-007 (10 μM) for 10 min. In FIG. 3C, HEK293 cells overexpressing β1-AR and transfected with Epac1 were pretreated or not with 20 μM of CE3F4 for 30 min and stimulated or not with Iso for 10 min. Amounts of H-Ras-GTP were determined by pull-down assays. The bar graph represents the mean±S.E.M. of 5 (FIG. 3A) or 2 (FIG. 3B, 3C) independent experiments. Results are expressed as the percentage of unstimulated control cells.
Cardiac myocytes were isolated as previously described by Wollert and colleagues (1996). HEK293 cells stably expressing the β1-adrenergic receptor (β1-AR) was a gift of Dr. Shenoy (Duke University). HEK293 cells were maintained in MEM with FBS (Foetal Bovine Serum; 10%) and penicillin-streptomycin (1%). All media, sera and antibiotics used in cell culture were purchased from Invitrogen (Cergy Pontoise, France). […]

[2] = test system: Iso-induced NFAT-Luc transcriptional activation; assay: NFAT-Luc transcriptional activation (Firefly luciferase assay) in neonatal cardiomyocytes; format: cell-based, rat; details: CE3F4 20 μM, 30 min pretreatment; Iso 10 μM, 8 h; FIG. 4B
Experimental: ANF and NFAT promoters were fused to the Firefly luciferase gene (ANF-Luc) (NFAT-Luc) to detect ANF and NFAT by Firefly Luciferase assay (see Materiel and Methods).
Rat neonatal cardiomyocytes were cotransfected with ANF-Luc and Epac1 or empty vector pcDNA3 as control. One day after transfection, cells were pretreated or not with CE3F4 (20 μM) for 30 min and stimulated or not with Iso (10 μM) for 8 h. Cells were then assayed for Luciferase activity. B) Iso-induced NFAT-Luc Transcriptional Activation is Blocked by CE3F4: Neonatal cardiomyocytes were transfected with NFAT-Luc. One day later cells were pretreated or not with CE3F4 (20 μM) for 30 min and stimulated or not with Iso (10 μM) for 8 h. The day after, cells were assayed for Luciferase activity.
Results were normalized to control for each experiment, and were expressed as means±S.E.M of at 4 (FIG. 4A) or 5 (FIG. 4B) independent experiments performed in triplicates.
The rat ANF promoter fused to the Firefly luciferase reporter gene (ANF-Luc) by Dr K. Knowlton, Epac and Rap1 plasmid construct (Epac1^WT) by Drs J. L. Bos and J. de Gunzburg, respectively. The Firefly luciferase reporter plasmid driven by four NFAT consensus binding sites (NFAT-Luc) was purchased from Stratagene. […]
Cells were lysed, and luminescence was detected using the Luciferase Assay System (Promega) according to the manufacturer's instructions with Tecan Infinite.

Effect on Iso-induced NFAT transcriptional activity [2]: prevented
Compound: CC1CCc2c(cc(Br)c(F)c2Br)N1C=O (racemic) [CE3F4]
Amount of Ras-GTP induced by Sp-007 [1]: decreased

From patent publication US10093627B2, “Tetrahydroquinoline derivatives and their use as Epac inhibitors” (Institut National de la Sante et de la Recherche Medicale …, priority 2012, dated 2018)
